Assay results as given in patent US5686426A, “Dicarboxymethylated glycolipid derivatives as cell adhesion inhibitors” (Bristol-Myers Squibb Company, priority 1994, dated 1997).

Tests used:
[1] = tested on: reverse passive Arthus reaction in rats; experiment: Reverse Passive Arthus Reaction in Rats (RPA); type: in vivo, Male Sprague Dawley rats; parameters: key: NS: no significant inhibition at 3 mg; settings: rat, single IV dose 3 mg, 4 hours; for RPA VP % Inhib. (vascular permeability): 125I-BSA plasma extravasation into skin; for RPA MPO % Inhib. (myeloperoxidase, neutrophil accumulation): skin MPO activity
Source text: The reverse passive Arthus reaction in rats is a modification of the method by Mulligan et al., as described in J. Clin. Invest., (1991) 88: 1396-1406. This is an experimental model in which the interaction of antigen-antibody complexes and complement leads to a severe vasculitis that is associated with edema, induration, erythema and hemorrhage. The interaction between the antigen-antibody complexes and complement leads to a localized influx of neutrophils. These neutrophils release a variety of mediators that are associated with tissue damage and vascular permeability. The localized inflammatory reaction is measured using different techniques i.e., vascular permeability and neutrophil influx which is evaluated both biochemically and microscopically.
Male Sprague Dawley specific pathogen-free rats with jugular vein cannulae (280-320 g, Hill Top Labs, Pa.) are used in these studies. Animals are acclimated for at least 1 day and individually housed in stainless steel cages. The dorsal region of the rats is closely clipped 2 days prior to the experiments and divided into 4 sites on each side of the midline. Prior to all injections the rats are sedated with 0.4 ml per 300 gm rat of ketamine/rompun [1000 mg (10 ml) of ketamine HCL is mixed with 40 mg (2.0 ml) Rompun] administered IP and or inhalation anesthesia with metafane (methoxyflurane).
Bovin Serum Albumin (BSA) and rabbit polyclonal IgG rich in anti-BSA are purchased from Sigma Chemical Co. (St. Louis, Mo.). Radiolabelled ^125 I-BSA (spAct 1-5 μCi/μg) is purchased from Dupont NEN (Boston, Mass.).
Each rat is administered intradermal (ID) injection of (0.4 mg, 0.6 mg and 0.8 mg) anti-BSA in a volume of 100 μl per injection in normal saline. The ID injections are randomized near the mid dorsal region on both sides of the back bone. Immediately after the ID injections of the anti-BSA, the rats are administered intravenous (IV) injections of BSA (10 mg in 1.0 ml) in normal saline containing ^125 I labeled BSA (1 μCi/ml BSA or 5.0 μCi/kg body wt) for quantification of dermal vascular injury. Anti-inflammatory agents such as inhibitors of adhesion molecules of the present invention are administered IV at a single dose of 3 mg immediately after BSA. Four (4) hours after the IV injection of BSA, the rats are anesthetized with metafane and 2 to 3 ml of blood is withdrawn via the cannula into an anticoagulant containing (EDTA or Heparin) tube and plasma separated and saved for neutrophil and albumin quantitation. The rats are killed and the skin surrounding the injection site (15 mm diameter) is punched out and weighed. The skin samples and a fixed volume of plasma (0.1 to 1.0 ml) is analyzed in a gamma-counter for ^125 I content. Skin samples from the contralateral side are processed and analyzed for myeloperoxidase activity (MPO) as a measure of neutrophil accumulation. As needed, samples are also processed for histological evaluation of the reacted sites.
Vascular Permeability (VP)
The calculation of the plasma protein exudation into skin is made by determining the radioactivity in the tissue and relating this to the level of radioactive albumin in the blood at the time of sacrifice. […] [formula]
Percent inhibition of the test compound at 3 mg was determined as follows: [formula] Myeloperoxidase (MPO)
MPO is located in the azurophil granules of polymorphonuclear leukocytes (PMN). Because of its abundance in these cells (5% dry weight), this enzyme is used as a marker for tissue neutrophil content. For tissue MPO content, the method of Bradley, et al., was used as described in J. Invest. Dermatol. (1982) 78: 206-209. Biopsies from each treatment group were placed in plastic tubes (15×100 mm) containing 10 ml of 0.5% hexadecyltrimethylammonium bromide (HTAB)in 0.05M potassium phosphate buffer pH 6.0. The tissue was then homogenized with a Brinkmann Polytron homogenizer (10s). […]

P-selectin = experiment: P-Selectin Adhesion Receptor Binding (cell-free ELISA, inhibition of P-selectin binding to immobilized sulfatides)
Source text: P-selectin (GMP140, granule membrane protein-140, PADGEM, or CD62) is a calcium-dependent transmembrane protein found in alpha granules of endothelial cells and platelets. It is an inducible selectin produced on activated endothelium and platelets which recognize alpha(2-3)sialylated and alpha(1-3)fucosylated lactosaminoglycans which include the sequence, Lewis x (Zhou et al., J. Cell. Biol., (1991) 115 (2): 557-564) and sulfatides (3-sulfated galactosyl ceramides, Aruffo, et al., Cell (1991) 67: 35-44). P-selectin may be responsible for the initial adhesion events between endothelium and neutrophils as evidenced by leukocyte rolling induced by P-selectin in flow cells (Lawrence, M., and T. Springer, Cell (1991) 65: 859-873).
Based on the availability of soluble forms of P-selectin prepared as described by Aruffo, A., et al., Cell, 67, 35-44 (1991), a binding ELISA based assay modified from Foxall, et al., J., Cell Biol., 117, 895-902 (1992) was developed to measure inhibitors of P-selectin binding to immobilized sulfatides. Such inhibitors were tested in the assay described below.
0.1 ml of sulfatide (SIGMA) at 1 μg/ml in MeOH was added to 48 wells of a 96-well ELISA plate (ProBind, Falcon) and allowed to dry overnight at room temperature. Another set of 48 wells were incubated with the solvent (methanol, Fisher Scientific). The next day the antigen/solvent coated plates were blocked for 1.5 hours at room temperature with 5% BSA (ICN) in buffer containing 20 mM Hepes, 1 mM CaCl2 and 0.15M NaCl, pH 8.0. Wild type P-selectin was first mixed with HRP-conjugated goat anti-human IgG (1:5000 dilution, Fisher Scientific), and incubated for 30 minutes at 37° C. in buffer containing 20 mM Hepes, 0.15M NaCl, 1% BSA and 1 mM CaCl2, pH 8.0 prior to addition to the BSA blocked plates. Following the 30 minute preincubation, the fusion protein-HRP conjugate immunocomplexes were incubated on the blocked antigen coated plates for 45 minutes at 37° C. in the presence or absence of the test compounds and then washed to remove any unbound proteins. Bound complexes were detected by addition of substrate buffer (95 mM NaOAc.3H2 O, 5 mM citric acid monohydrate, 1.4 mM urea/H2 O2) containing 3, 3', 5, 5' Tetramethylbenzidine (SIGMA). Reactions were stopped by the addition of 3N sulfuric acid and the absorbance read on an ELISA reader at dual wavelengths 450 and 630 nm. The efficacy of these compounds was compared to that of sulfatide (positive control) or to MeOH (negative control). The data is obtained as percent inhibition of specific binding [formula] and a plot of dose vs. percent inhibition of Rg binding is generated in which IC50 (μM) is calculated and reported as cell free data in Table 1.

Compound	RPA VP % Inhib. (vascular permeability) [1]	RPA MPO % Inhib. (myeloperoxidase, neutrophil accumulation) [1]	IC50 (P-selectin)
CCCCCCCCCCCCC/C=C/[C@@H](OC(=O)c1ccccc1)[C@H](CO[C@H]1O[C@H](COCC(=O)O)[C@H](OCC(=O)O)[C@H](O)[C@H]1OC(=O)c1ccccc1)NC(=O)CCCCCCCCCCCCCCC [Example 14, (2S,3R,4E)-3-Benzoyloxy-2-hexadecanoylamino-1-[2-O-benzoyl-4,6-di-O-carboxymethyl-α-D-galactopyranosyloxy]-4-octadecene]	32%	13%	0.7 µM
CCCCCC/C=C/[C@@H](OC(=O)c1ccccc1)[C@H](CO[C@H]1O[C@H](COCC(=O)O)[C@H](OCC(=O)O)[C@H](OC(=O)c2ccccc2)[C@H]1OC(=O)c1ccccc1)NC(=O)CCCCCCCCC(=O)OC [Example 8, (2S,3R,4E)-3-Benzoyloxy-2-(9-methoxycarbonyl-nonanoylamino)-1-(2,3-di-O-benzoyl-4,6-di-O-carboxymethyl-α-D-galactopyranosyloxy)-4-undecene]	9%	22%	> 50 µM
CCCCCCCCCCCCC/C=C/[C@@H](OC(=O)c1ccccc1)[C@H](CO[C@@H]1O[C@H](COCC(=O)O)[C@H](OCC(=O)O)[C@H](OC(=O)c2ccccc2)[C@H]1OC(=O)c1ccccc1)NC(=O)CCCCCCCCCCCCCCC [Example 16, (2S,3R,4E)-2-Hexadecanoylamino-3-benzoyloxy-1-(4,6-di-O-carboxymethyl-2,3-di-O-benzoyl-β-D-galactopyranoside)-4-octadecene]	NS	NS	3.5 µM
CCCCCCCCCCCCC/C=C/[C@@H](OC(=O)c1ccccc1)[C@H](CO[C@H]1O[C@H](COCC(=O)O)[C@H](OCC(=O)O)[C@H](OC(=O)c2ccccc2)[C@H]1OC(=O)c1ccccc1)NC(=O)CCCCCCCCCCCCCCC [Example 2, (2S,3R,4E)-3-Benzoyloxy-2-hexadecanoylamino-1-[2,3-di-O-benzoyl-4,6-di-O-carboxymethyl-α-D-galactopyranosyloxy]-4-octadecene]	> 73%	> 99%	0.92 µM
CCCCCCCCCCCCC/C=C/[C@@H](OC(=O)c1ccccc1)[C@H](CO[C@@H]1O[C@H](COCC(=O)O)[C@H](OCC(=O)O)[C@H](OC(=O)c2ccccc2)[C@H]1O)NC(=O)CCCCCCCCCCCCCCC [Example 18, (2S,3R,4E)-3-Benzoyloxy-2-hexadecanoylamino-1-[3-O-benzoyl-4,6-di-O-carboxymethyl-β-D-galactopyranosyloxy]-4-octadecene]	73.6%	98%	< 0.03 µM
